Data on seven molecules can be found in PubChem BioAssay (NCI).

“And” between values parts separate entries of the source, which are not always exact repeats. Identical values can stand only once.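 Assay format: 96-well plates, 48-hour exposure. GI50: concentration for 50% inhibition of growth. TGI: total growth inhibition.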

Assay in all cases: inhibition of tumour cell growth, NCI panel, 48 h
Assay [1] deals with UACC-257 melanoma.
Assay [2] concerns HS 578T breast.
For assay [3], the system named is HT29 colon.
Assay [4] relates to MALME-3M melanoma.
The test system of assay [5] is DU-145 prostate.
Assay [6] relates to A549 NSCLC.
The subject of assay [7] is A498 renal.
Assay [8] relates to SK-MEL-2 melanoma.
For assay [9], the system named is HCT-15 colon.
In assay [10] the test system is HOP-62 NSCLC.

Take `O=C(Nc1cccc2[nH]c(C(F)(F)F)nc12)c1cc(Cl)ccc1Cl`: the GI50 in [1] is 3.34 µM; in [2] it was 2.91 µM; in assay [3] it was 3.62 µM; in assay [4], 2.85 µM; in assay [5], 4.94 µM; in assay [6] it was 3.45 µM. The GI50 in assay [7] was 1.63 µM; in [8] it was 2.79 µM; in assay [9] it was 3.38 µM; in assay [10] it was 2.34 µM. The TGI in [1] was 12.3 µM; in assay [2], 12.9 µM; in assay [3], 14.7 µM; in [4] it was 8.61 µM; in [5], above 100 µM; in assay [6], above 100 µM. The TGI in assay [7] amounted to 6.19 µM; in [8], 6.66 µM; in assay [9] it was 19.4 µM; in assay [10], 7.37 µM.

As to `CCCN(CCC)c1ccc(C=O)c(Cl)c1`, the GI50 in assay [1] was 0.273 µM; in assay [2] it was 22.9 µM; in assay [3], 18.4 µM; in assay [4], 23.4 µM; in assay [5] it was 48 µM; in [6], 7.66 µM. Moreover, the GI50 in [7] was 0.141 µM; in [8], 15 µM; in [9], 24 µM; in assay [10] it was 13.3 µM. In addition, the TGI was 0.979 µM in [1]; above 96.8 µM in assay [2]; 50.2 µM in assay [3]; above 69 µM in assay [4]; above 100 µM in [5]; above 100 µM in assay [6]. Besides, the TGI is 0.289 µM in [7], 44.3 µM in [8], above 100 µM in assay [9] and 64.9 µM in [10].

`CC(=O)c1ccc2c(c1)N(CCCN1CCN(CCO)CC1)c1ccccc1S2`: the GI50 in assay [1] is 1.85 µM; in assay [2], 1.66 µM; in assay [3], 1.7 µM; in assay [4], 1.75 µM; in assay [5], 4.55 µM; in assay [6] it was 3.3 µM. For the same molecule, the GI50 is 1.55 µM in assay [7], 2.11 µM in assay [8], 1.99 µM in [9] and 1.99 µM in [10]. Also, the TGI amounted to 3.51 µM in assay [1]; 4.52 µM in assay [2]; 3.75 µM in assay [3]; 3.62 µM in assay [4]; 15.8 µM in assay [5]; 11.5 µM in assay [6]. In addition, the TGI worked out at 3.91 µM in [7], 6.02 µM in assay [8], 5.01 µM in [9] and 4.77 µM in [10].

On to `COc1ccc(-c2c(C#N)c(N)nc(N3CCOCC3)c2C#N)cc1`, for which the GI50 in assay [1] was 23.9 µM; in assay [2], 17.5 µM; in assay [3], 26.6 µM; in assay [4], 11.7 µM; in [5] it was 27.3 µM; in assay [6], 29.4 µM. Also, the GI50 in assay [7] is 7.36 µM; in assay [8], 27.1 µM; in assay [9], 18.8 µM; in [10], 14.8 µM. The TGI in assay [1] was 82.1 µM; in assay [2], 64.4 µM; in assay [3], above 100 µM; in assay [4], 54.7 µM; in assay [5], above 100 µM; in assay [6] it was above 100 µM. The TGI in [7] is 30.1 µM; in assay [8], above 100 µM; in [9], 62.4 µM; in assay [10], 70.4 µM.

With `CCCCCCNCCCNc1c2cc(OC)ccc2nc2cccc([N+](=O)[O-])c12`, the GI50 in assay [1] is 0.395 µM; in assay [2], 0.242 µM; in assay [3], 0.0544 µM; in [4] it was 0.179 µM; in assay [5], 0.162 µM; in [6], 0.213 µM. For the same molecule, the GI50 in assay [7] is 0.227 µM; in assay [8], 0.048 µM; in assay [9], 0.212 µM; in [10], 0.124 µM. Also, the TGI in [1] is 1.4 µM and 1.47 µM; in assay [2] it was 1.47 µM and 0.786 µM; in assay [3] it was 0.407 µM and 0.353 µM; in assay [4], 0.199 µM and 0.422 µM; in [5] it was 0.338 µM and 1.36 µM; in [6] it was 0.393 µM and 1.08 µM. The TGI is 3.6 µM and 0.462 µM in assay [7]; 0.209 µM and 0.199 µM in assay [8]; 14.4 µM in [9]; 0.371 µM and 0.449 µM in [10].

`COc1cc(OCc2cccc(-c3ccccc3)c2C)cc(OC)c1CN1CCCCC1C(=O)NCCOCCOCCN` (stereo not drawn): the GI50 is 1.83 µM in assay [1]; 1.93 µM in assay [2]; 2.38 µM in assay [3]; 1.55 µM in assay [4]; 4.61 µM in [5]; 3.04 µM in [6]. Moreover, the GI50 is 2.27 µM in [7], 1.96 µM in assay [8], 3.09 µM in [9] and 2.3 µM in assay [10]. Further, the TGI worked out at 3.68 µM in assay [1]; 4.56 µM in assay [2]; 6.65 µM in assay [3]; 3.05 µM in [4]; 16.1 µM in assay [5]; 10.7 µM in assay [6]. In addition, the TGI stood at 11.8 µM in assay [7], 4.03 µM in [8], 11.1 µM in [9] and 6.06 µM in [10].

In the case of `COc1cc(F)ccc1-c1cc(Nc2cc(CS(C)(=N)=O)ccn2)ncc1F` (stereo not drawn), the GI50 was 0.261 µM in [1]; 0.0919 µM in [2]; 0.0945 µM in assay [3]; 0.2 µM in assay [4]; 0.0773 µM in [5]; 0.105 µM in [6]. Moreover, the GI50 in assay [7] is 0.0713 µM; in assay [8], 0.135 µM; in assay [9], 0.0491 µM; in assay [10], 0.0624 µM. Besides, the TGI in assay [1] is above 100 µM; in assay [3], above 100 µM; in [5] it was above 100 µM; in assay [6], above 100 µM; in assay [7], 0.392 µM; in assay [8], 0.437 µM. The TGI in assay [9] and in [10] was above 100 µM throughout.
